Test results reported in patent US20240081328A1, “Use of 4-Nitro-3-(Trifluoromethyl)Phenol in Killing or Controlling Pomacea Canaliculata, Method for Killing or Controlling Pomacea Canaliculata, and Molluscicide” (priority 2021, published 2024).
Where two headings read alike, the source gives them in different places.

Tested on: Pomacea canaliculata
Experiment: Immersion test of dilutions in beakers, mortality rate of Pomacea canaliculata
Type: in vivo
Settings: for mortality at 0.0039 µg/mL / mortality at 0.0078 µg/mL / mortality at 0.0156 µg/mL / mortality at 0.0312 µg/mL / mortality at 0.0625 µg/mL / mortality at 0.125 µg/mL / mortality at 0.25 µg/mL / mortality at 0.5 µg/mL: Pomacea canaliculata, read-out: Mortality rate (%) of Pomacea canaliculata at different action time (h); for mortality at 0.0039 µg/mL: 0.0039 mg/L; for mortality at 0.0078 µg/mL: 0.0078 mg/L; for mortality at 0.0156 µg/mL: 0.0156 mg/L; for mortality at 0.0312 µg/mL: 0.0312 mg/L; for mortality at 0.0625 µg/mL: 0.0625 mg/L
Experimental: 0.5 mg of 4-nitro-3-(trifluoromethyl)phenol and 0.5 mg of niclosamide were completely dissolved in 1 mL of a dimethyl sulfoxide (DMSO) solution separately, and diluted to 1,000 mL with deaminized water to obtain a 4-nitro-3-(trifluoromethyl)phenol solution with a concentration of 0.5 mg/L and a niclosamide solution with a concentration of 0.5 mg/L.
The two solutions were separately diluted into 7 concentrations of dilutions using a doubling dilution method, including 0.25 mg/L, 0.125 mg/L, 0.0625 mg/L, 0.0312 mg/L, 0.0156 mg/L, and 0.0078 mg/L, and 0.0039 mg/L.
400 mL of the dilutions with different concentrations were separately poured into a 500 mL beaker, 10 Pomacea canaliculata samples were put into the dilution of each concentration, and each bottle mouth was sealed with wire mesh to completely immerse the Pomacea canaliculata in the dilution; clear water was used as a control group.
The experimental data were used to calculate the mortality rate of each treatment according to the following formula. Each calculation result was rounded to two decimal places. A formula for calculating the mortality rate was: […]
In the formula: P represented the mortality rate, in percentage (%); Σ^Ki represented • the number of dead Pomacea canaliculata, in snails; Σ^Ni represented the total number of treated Pomacea canaliculata, in snails.

SMILES: O=C(Nc1ccc([N+](=O)[O-])cc1Cl)c1cc(Cl)ccc1O [niclosamide]
- killing of Pomacea canaliculata (in words) (0.125 mg/L, within 24 h): all Pomacea canaliculata died
- killing of Pomacea canaliculata (in words) (0.25 mg/L, action time 12 h): all Pomacea canaliculata died
- killing of Pomacea canaliculata (in words) (0.5 mg/L, action time 12 h): all Pomacea canaliculata died
- mortality at 0.0039 µg/mL (action time 0 h): 0%
- mortality at 0.0039 µg/mL (action time 12 h): 0%
- mortality at 0.0039 µg/mL (action time 24 h): 20%
- mortality at 0.0039 µg/mL (action time 36 h): 30%
- mortality at 0.0039 µg/mL (action time 48 h): 30%
- mortality at 0.0039 µg/mL (action time 60 h): 30%
- mortality at 0.0039 µg/mL (action time 72 h): 40%
- mortality at 0.0078 µg/mL (action time 0 h): 0%
- mortality at 0.0078 µg/mL (action time 12 h): 10%
- mortality at 0.0078 µg/mL (action time 24 h): 40%
- mortality at 0.0078 µg/mL (action time 36 h): 40%
- mortality at 0.0078 µg/mL (action time 48 h): 40%
- mortality at 0.0078 µg/mL (action time 60 h): 40%
- mortality at 0.0078 µg/mL (action time 72 h): 70%
- mortality at 0.0156 µg/mL (action time 0 h): 0%
- mortality at 0.0156 µg/mL (action time 12 h): 10%
- mortality at 0.0156 µg/mL (action time 24 h): 30%
- mortality at 0.0156 µg/mL (action time 36 h): 60%
- mortality at 0.0156 µg/mL (action time 48 h): 70%
- mortality at 0.0156 µg/mL (action time 60 h): 70%
- mortality at 0.0156 µg/mL (action time 72 h): 70%
- mortality at 0.0312 µg/mL (action time 0 h): 0%
- mortality at 0.0312 µg/mL (action time 12 h): 10%
- mortality at 0.0312 µg/mL (action time 24 h): 50%
- mortality at 0.0312 µg/mL (action time 36 h): 70%
- mortality at 0.0312 µg/mL (action time 48 h): 80%
- mortality at 0.0312 µg/mL (action time 60 h): 80%
- mortality at 0.0312 µg/mL (action time 72 h): 80%
- mortality at 0.0625 µg/mL (action time 0 h): 0%
- mortality at 0.0625 µg/mL (action time 12 h): 30%
- mortality at 0.0625 µg/mL (action time 24 h): 50%
- mortality at 0.0625 µg/mL (action time 36 h): 80%
- mortality at 0.0625 µg/mL (action time 48 h): 80%
- mortality at 0.0625 µg/mL (action time 60 h): 100%
- mortality at 0.0625 µg/mL (action time 72 h): 100%
- mortality at 0.125 µg/mL (0.125 mg/L, action time 0 h): 0%
- mortality at 0.125 µg/mL (0.125 mg/L, action time 12 h): 90%
- mortality at 0.125 µg/mL (0.125 mg/L, action time 24 h): 100%
- mortality at 0.125 µg/mL (0.125 mg/L, action time 36 h): 100%
- mortality at 0.125 µg/mL (0.125 mg/L, action time 48 h): 100%
- mortality at 0.125 µg/mL (0.125 mg/L, action time 60 h): 100%
- mortality at 0.125 µg/mL (0.125 mg/L, action time 72 h): 100%
- mortality at 0.25 µg/mL (0.25 mg/L, action time 0 h): 0%
- mortality at 0.25 µg/mL (0.25 mg/L, action time 12 h): 100%
- mortality at 0.25 µg/mL (0.25 mg/L, action time 24 h): 100%
- mortality at 0.25 µg/mL (0.25 mg/L, action time 36 h): 100%
- mortality at 0.25 µg/mL (0.25 mg/L, action time 48 h): 100%
- mortality at 0.25 µg/mL (0.25 mg/L, action time 60 h): 100%
- mortality at 0.25 µg/mL (0.25 mg/L, action time 72 h): 100%
- mortality at 0.5 µg/mL (0.5 mg/L, action time 0 h): 0%
- mortality at 0.5 µg/mL (0.5 mg/L, action time 12 h): 100%
- mortality at 0.5 µg/mL (0.5 mg/L, action time 24 h): 100%
- mortality at 0.5 µg/mL (0.5 mg/L, action time 36 h): 100%
- mortality at 0.5 µg/mL (0.5 mg/L, action time 48 h): 100%
- mortality at 0.5 µg/mL (0.5 mg/L, action time 60 h): 100%
- mortality at 0.5 µg/mL (0.5 mg/L, action time 72 h): 100%
- mortality rate of Pomacea canaliculata within 72 h (concentration of below 0.0312 mg/L, within 72 h): < 100%
